Test results: US8841125B2, “Cancer tissue-derived cell mass and a process for preparing same” (Renaissance Energy Investment Co., Ltd., priority 2009, dated 2014)

Tested on: cell mass derived from the cancer tissue (surgical specimens of human colon cancer, Example 2)
Assay: Drug sensitivity test with cell masses embedded in collagen gel
Format: cell-based
Settings: 5-FU at 0.01, 0.1, 1, 10 and 100 μg/ml; day 8 vs day 0 of culture; FIG. 4
Protocol: Using 5-FU which is known to inhibit DNA synthesis by binding to a thymidylic acid synthetase involved in the metabolism process necessary for DNA synthesis, a drug sensitivity test on a sample of Example 2 was carried out. The test was carried out by embedding the cell masses (×10 each) derived from the cancer tissue in a collagen gel (CellMatrix type IA (Nitta Gelatin Inc.):5×DMEM (Gibco; 12100-038):buffer solution for gel reconstruction (50 mM NaOH, 260 mM NaHCO3, 200 mM HEPES)=7:2:1), and culturing in 1 cc of STEMPRO serum-free medium (Gibco) for human ES cells in an incubator under the culture conditions of 37° C. and 5% CO2. In addition, 5-FU was applied at a concentration of 0.01 μg/ml, 0.1 μg/ml, 1 μg/ml, 10 μg/ml, and 100 μg/ml, and the states of the cells on days 0 and 8 after culture were compared for evaluation. An increasing rate of the area of the cell mass derived from the cancer tissue was expressed relative to 1 of an increasing rate of the area of the cell mass in the culture without application of a drug.

## O=c1[nH]cc(F)c(=O)[nH]1 [5-FU]
  proliferation of the cancer cell (increasing rate of the area of the cell mass relative to 1 for culture without drug): concentration-dependently suppressed
